Several values for one entry are separate records, joined by “and”; a condition that tells them apart may be missing. Equal values may be shown once. Read-outs that look alike come from different tables or passages of the source.
How the values were obtained:
[1] = tested on: T. b. brucei trypomastigote; experiment: T. b. brucei resazurin (Alamar Blue) viability assay; type: cell-based, Trypanosoma brucei brucei
Procedure: Compound activity against two members of another clinically important group of parasites, the kinetoplastids T. cruzi and T. b. brucei was determined. The sensitive high content imaging assay used to determine compound activity against T. cruzi assesses the intracellular amastigote life form of the parasite in the 3T3 host cell. […] The T. b. brucei assay employs the REDOX indicator Alamar Blue to assess viability, which was developed into a 384-well assay format.
Compound activity against T. b. brucei was assessed in a resazurin-based viability assay in concentration-response assays, without technical repeats, in two experimental replicates at a highest concentration of 40 μM, as previously described.

T. cruzi trypomastigotes = experiment: T. cruzi trypomastigote PrestoBlue assay; type: cell-based, Trypanosoma cruzi; details: for IC50: highest concentration 40 μM, read-out: T. cruzi trypomastigote IC50 ± SEM
Procedure: Compound activity against T. cruzi trypomastigotes was assessed in two independent experiments, without technical repeats, at a final highest compound concentration of 40 μM in concentration-response PrestoBlue assay, as previously described.

3T3 cells = experiment: 3T3 host cell cytotoxicity (part of T. cruzi amastigote image-based assay); design: species or system mouse; details: bound = highest concentration with < 50 % inhibition; read-out: 3T3 cytotoxicity IC50 ± SEM
Excerpt: (§1) An initial indication of compound selectivity over human cells had previously been obtained through comparison of the compounds’ IC50 values against P. falciparum asexual stages and HEK293 [22]. In the present study, the selectivity investigation was extended to a small panel of human cancer cell lines, namely the estrogen receptor (ER)-positive breast cancer cell line MCF7, the ER-negative MDA-MB-231, as well as the human prostate cancer line, PC-3. Additionally, the cytotoxic effects on mouse embryonic fibroblast cell line 3T3, which serves as the host cell for T. cruzi in our image-based amastigote assay, were investigated.
(§2) Cytotoxicity of the compounds was assessed against a panel of human cancer cell lines, namely the estrogen receptor (ER)-positive breast cancer cell line MCF7, the ER-negative MDA-MB-231 and the prostate cancer line PC-3. All the cell lines were purchased from ATCC and maintained as previously described. Two biological replicates consisting of two technical replicates each were performed to generate concentration response curves (CRC) with a final highest concentration of 40 μM. A resazurin-based assay was utilized to determine cell viability as described earlier. Additionally, the cytotoxic effects on the mouse embryonic fibroblast cell line 3T3 were assessed as part of the Trypanosoma cruzi amastigote image-based assay as outlined in [35].

MCF7 cells = experiment: Resazurin cytotoxicity assay, MCF7; type: cell-based, human; details: highest concentration 40 μM; bound = highest concentration with < 50 % inhibition; read-out: MCF7 cytotoxicity IC50 ± SEM
Excerpt: as §1, §2

MDA-MB-231 cells = experiment: Resazurin cytotoxicity assay, MDA-MB-231; type: cell-based, human; details: highest concentration 40 μM; bound = highest concentration with < 50 % inhibition; read-out: MDA-MB-231 cytotoxicity IC50 ± SEM
Excerpt: as §1, §2

[2] = tested on: panel of human cancer cell lines (MCF7, MDA-MB-231, PC-3); experiment: Cytotoxicity across the panel of cell lines; type: cell-based; details: for IC50: MCF7, MDA-MB-231, PC-3, read-out: IC50 range against the cancer cell lines; for cytotoxicity against any of the cell lines investigated (in words): up to the highest tested concentration of 40 μM
Excerpt: as §1, §2

[3] = tested on: T. b. brucei trypomastigotes; experiment: Chemical rescue with CoA pathway intermediates, T. b. brucei; type: cell-based, Trypanosoma brucei brucei; details: inhibitor at IC80; for Percent rescue ± SEM by CoA, Tbb: CoA 1.0 mM; for Percent rescue ± SEM by pantethine, Tbb: pantethine 2.44 μM; for Percent rescue ± SEM by pantothenate, Tbb: pantothenate 1.25 mM
Procedure: Pantothenate is the first substrate of the pathway (Fig. 1) and its addition was intended to rescue the action of possible competitive inhibitors of the first enzyme, PanK. […] It is not known, whether P. falciparum is capable of pantetheine phosphorylation for utilization in CoA synthesis. […] Finally, the rescue ability of dP-CoA, the final substrate of CoA synthesis, was tested. […] Inhibitors competing with dP-CoA for DPCK binding were expected to be displaced, thereby rescuing parasite survival, by dP-CoA supplementation in a concentration dependent manner.
An imaging based assay was utilised to assess the chemical rescue on asexual stages of P. falciparum as described previously. All the pathway intermediates were purchased from Sigma. […]
The same concentration ranges of the CoA pathway intermediates were supplemented to parasites treated with the experimental compounds. The inhibitors were used at their respective final assay concentration of IC80 (as determined previously in the corresponding P. falciparum development stage or T. b. brucei assay). […] The negative control used in each assay was 0.4% DMSO, whilst the positive control was 2 μM artemisinin for asexual P. falciparum blood stages and 5 μM puromycin for all gametocyte stages and T. b. brucei. The percentage growth of the respective parasites following compound treatment was determined using Microsoft ® Excel 2010, and compared with their controls. All rescue assays were performed as two independent experiments each in duplicate point.

[4] = tested on: P. falciparum developmental stages; experiment: Activity across all P. falciparum life-cycle stages tested (asexual, early and late gametocytes); type: cell-based, Plasmodium falciparum; details: early and late stage gametocytes; for IC50: read-out: IC50 range across all P. falciparum life-cycle stages tested
Procedure: Induction of P. falciparum gametocyte differentiation and gametocyte culturing were performed as previously described. Compound activity against early stage gametocytes (covering the development from stage I to IIb/III) and late stage gametocytes (stage IV to V) of the recombinant P. falciparum line NF54^Pfs16 was assessed in concentration-response assays, in two experimental replicates consisting of two technical repeats each, at a highest concentration of 40 μM, as described earlier.

HEK293 cells = details: as previously reported; read-out: HEK293 cytotoxicity IC50 ± SEM; cited from earlier work
[5] = tested on: P. falciparum pantothenate kinase (PfPanK); experiment: Radiometric pantothenate phosphorylation assay in P. falciparum lysate; type: biochemical, Plasmodium falciparum; details: 100 μM single concentration, all compounds (Figure S2a)
Procedure: A radiometric assay, which allows measurement of the phosphorylation of various substrates by kinases present in P. falciparum lysates [16, 39], was used to test the effect of the chemical compounds of interest at 100 μM concentration on PanK activity.
The ability of the test compounds to inhibit P. falciparum pantothenate kinase (PfPanK) was assessed with a radiometric pantothenate phosphorylation assay as described previously [39]. In short, the phosphorylation of [^14C] pantothenate by P. falciparum lysates was measured in the presence or absence of a single concentration (100 μM, two biological replicates in duplicate technical repeats) of each test compound. […] P. falciparum lysate was prepared from trophozoite stage parasites isolated from their host RBC by treatment with 0.05% (w/v) saponin, and washed (three times) in HEPES-buffered saline (125 mM NaCl, 5 mM KCl, 20 mM D-glucose, 25 mM HEPES, 1 mM MgCl2, pH 7.1). Lysates were prepared in 10 mM potassium phosphate, pH 7.4, the concentration of cell lysates was determined from cell counts with an improved Neubauer hemocytometer, and aliquots of lysate were stored at -20 °C.[^14C] pantothenate, [^14C]

[6] = 40 µM, given if an IC50 could not be calculated

SMILES | IC50 ([1]; read-out: T. b. brucei IC50) [nM] | IC50 (T. cruzi trypomastigotes) | IC50 (3T3 cells) [nM] | IC50 (MCF7 cells) [nM] | IC50 (MDA-MB-231 cells) [nM] | IC50 [2] [nM] | Percent rescue ± SEM by CoA, Tbb [3] [%] | Percent rescue ± SEM by pantethine, Tbb [3] | Percent rescue ± SEM by pantothenate, Tbb [3] | activity against all P. falciparum development stages tested (in words) [4] | IC50 (HEK293 cells) [nM] | IC50 ([1]; highest concentration 40 μM, read-out: T. b. brucei trypomastigote IC50 ± SEM) | cytotoxicity against any of the cell lines investigated (in words) [2] | IC50 [4] [nM] | T. b. brucei trypomastigote percent inhibition at the highest concentration tested [1, 6] [%] | T. cruzi trypomastigote percent inhibition at the highest concentration tested (T. cruzi trypomastigotes; [6]) [%] | PanK inhibition [5] | Percent rescue ± SEM by dephospho CoA, Tbb ([3]; dP-CoA 1.6 mM) [%]
CC(=O)C1=C(c2ccccc2)C(=O)c2ccccc2C1=O [Amb4317088] | 160 | 390 nM and 392 nM | 8600 ± 960 | 4600 ± 160 | 870 ± 40 | 870 to 4600 | 85.0 ± 6.9 | No | No | moderate, single digit micromolar activity | 2330 ± 120 | – | – | – | – | – | – | –
CC1=CC(=O)C(C(C)C)=C/C1=N/OS(=O)(=O)c1ccccc1 [STK 740987] | – | 680 nM and 682 nM | > 20000 | > 40000 | > 40000 | – | 69.6 ± 10.6 | No | No | sub-micromolar IC50 values | > 40000 | 1020 nM and 1000 nM | no or only negligible cytotoxicity | 380 to 460 | – | – | – | –
Cc1csc(Sc2ncnc3sccc23)n1 [Amb180780] | – | – | > 40000 | > 40000 | > 40000 | – | – | – | – | sub-micromolar IC50 values | ~40000 | – | no or only negligible cytotoxicity | 60 to 120 | 100 | 100 | did not reveal inhibition of PanK | –
CC(=O)c1ccc2c3c(onc13)-c1ccccc1C2=O [Amb3377585] | 200 | 740 nM and 744 nM | – | 9100 ± 620 | 5600 ± 330 | 5000 to 9000 | 95.0 ± 4.2 | No | 34.2 ± 1.3% and 34 ± 1% | – | 2750 ± 180 | – | – | – | – | – | – | 100.4 ± 1.4
